Experimental data: patent US20200216416A1, “QUINOLINE COMPOUNDS AS INHIBITORS OF TAM AND MET KINASES” (Array BioPharma Inc., priority 2019, published 2020)

Tests used:
[1] = molecular target: T1, GST-tagged recombinant human TYRO3 kinase domain (Homo sapiens, UniProt Q06418); test: TYRO3 Enzyme Assay (LanthaScreen Eu Kinase Binding); settings: averaged IC50; TYRO3 5 nM; 60-minute incubation at 22° C.; TR-FRET
T1 construct: GST-tagged recombinant human TYRO3 kinase domain; purchased Carna PR7480A
T1 sequence (Q06418 518-790 limits assumed): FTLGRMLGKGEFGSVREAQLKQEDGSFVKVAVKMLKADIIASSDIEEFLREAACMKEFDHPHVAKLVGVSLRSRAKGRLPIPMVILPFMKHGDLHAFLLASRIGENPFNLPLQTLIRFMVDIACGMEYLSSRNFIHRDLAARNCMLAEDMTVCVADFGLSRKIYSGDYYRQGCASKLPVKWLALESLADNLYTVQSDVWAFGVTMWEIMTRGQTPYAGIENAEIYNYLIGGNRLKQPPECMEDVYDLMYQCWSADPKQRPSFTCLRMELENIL
Outline: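 Competitive tracer-displacement TR-FRET: 5 nM kinase, 20 nM Alexa-Fluor Tracer 236 and 2 nM Eu-anti-GST with threefold-diluted compound in 25 mM HEPES pH 7.4, 10 mM MgCl2, 0.01% Triton X-100, 2% DMSO, 60 min at 22° C. Ratiometric percent of control fitted to a 4-parameter logistic; IC50 at 50 POC.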

[2] = molecular target: T2, human MET kinase Y1230S (Homo sapiens, UniProt P08581, Y1230S); test: c-Met Enzyme Assay, Y1230S mutant; type: binding; settings: averaged IC50; Y1230S 8 nM; 60-minute incubation at 22° C.; read-out: Y1230 S IC50
T2 construct: GST-tagged recombinant human MET kinase domain; purchased Signal Chem
Procedure: The affinity of compound binding to wild type and mutant human MET kinases was measured using Invitrogen's LanthaScreen™ Eu Kinase Binding technology. Briefly, GST-tagged recombinant human MET kinase domain from Signal Chem (see Table 8 below for concentration in assay) was incubated with 50 nM Alexa-Fluor® Tracer 236 (Invitrogen Cat No. PR9078A) and 2 nM Europium-anti-GST (Invitrogen Cat. No. A15116) along with test compound in a buffer consisting of 25 mM HEPES, pH 7.4, 10 mM MgCl2, 0.01% Triton X-100, 1mM DTT, and 2% DMSO. Compounds were typically prepared in a three-fold serial dilution in DMSO and added to the assay to give the appropriate final concentration. After a 60-minute incubation at 22° C., the reaction was measured using a PerkinElmer EnVision multimode plate reader via TR-FRET dual wavelength detection, and the percent of control (POC) calculated using a ratiometric emission factor. […] The POC values were fit to a 4 parameter logistic curve and the IC50 value is point where the curve crosses 50 POC.

[3] = molecular target: T3, His-tagged recombinant human AXL cytoplasmic domain (Homo sapiens, UniProt P30530); test: AXL Enzyme Assay (LanthaScreen Eu Kinase Binding); settings: averaged IC50; 60-minute incubation at 22° C.; TR-FRET
T3 construct: His-tagged recombinant human AXL cytoplasmic domain
T3 sequence (P30530 473-894 limits assumed): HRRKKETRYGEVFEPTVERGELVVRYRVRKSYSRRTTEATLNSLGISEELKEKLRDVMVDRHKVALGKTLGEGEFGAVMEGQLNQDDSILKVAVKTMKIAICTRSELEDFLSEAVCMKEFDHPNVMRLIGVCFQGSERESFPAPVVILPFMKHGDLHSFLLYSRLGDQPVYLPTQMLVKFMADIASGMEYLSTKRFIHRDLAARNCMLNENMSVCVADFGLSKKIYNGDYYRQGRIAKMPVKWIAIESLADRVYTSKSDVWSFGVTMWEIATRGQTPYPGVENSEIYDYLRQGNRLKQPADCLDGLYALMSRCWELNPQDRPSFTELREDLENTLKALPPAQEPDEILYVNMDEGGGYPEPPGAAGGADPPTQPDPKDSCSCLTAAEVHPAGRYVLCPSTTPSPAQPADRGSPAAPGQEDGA
Outline: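 TR-FRET binding-displacement format: 20 nM Alexa Fluor Tracer 236, 2 nM biotin-anti-His and 2 nM Eu-streptavidin in 25 mM HEPES pH 7.4, 10 mM MgCl2, 0.01% Triton X-100, 2% DMSO. After 60 min at 22 °C, ratiometric percent of control was fitted to a 4-parameter logistic curve, IC50 taken at 50 POC.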

T2 sequence (P08581 1078-1345 Y1230S): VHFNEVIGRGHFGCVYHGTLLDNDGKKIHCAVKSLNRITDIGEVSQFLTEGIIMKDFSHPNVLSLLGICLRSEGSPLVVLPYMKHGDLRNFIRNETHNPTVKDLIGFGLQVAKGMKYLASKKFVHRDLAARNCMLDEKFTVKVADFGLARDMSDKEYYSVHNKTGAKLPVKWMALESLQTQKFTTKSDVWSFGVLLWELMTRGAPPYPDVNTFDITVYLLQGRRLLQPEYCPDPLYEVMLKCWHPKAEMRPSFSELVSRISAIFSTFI

Row | SMILES | IC50 [1] | IC50 [2] | IC50 [3]
1 | COc1cc2nccc(Oc3ccc(NC(=O)c4cn(CCC(C)C)cc(-c5ccc(F)cc5F)c4=O)nc3)c2cc1OC [Example 36, 5-(2,4-difluorophenyl)-N-(5-((6,7-dimethoxyquinolin-4yl)oxy)pyridin-2-yl)-1-isopentyl-4-oxo-1,4-dihydropyridine-3-carboxamide] | 14 nM | 2.3 nM | 3 nM
2 | CCn1cc(C(=O)Nc2ccc(Oc3ccnc4ccc(OC)cc34)cn2)c(=O)c(-c2ccc(F)cc2)c1 [Example 39, 1-ethyl-5-(4-fluorophenyl)-N-(5-((6-methoxyquinolin-4-yl)oxy)pyridin-2-yl)-4-oxo-1,4-dihydropyridine-3-carboxamide] | 83 nM | 55.3 nM | 3 nM
3 | COc1ccc2nccc(Oc3ccc(NC(=O)c4cn(C)cc(-c5ccc(F)cc5)c4=O)nc3)c2c1 [Example 41, 5-(4-fluorophenyl)-N-(5-((6-methoxyquinolin-4yl)oxy)pyridin-2-yl)-1-methyl-4-oxo-1,4-dihydropyridine-3-carboxamide] | 141 nM | 226 nM | 5 nM
4 | COc1cc2nccc(Oc3ccc(NC(=O)c4cn(CCN(C)C)cc(-c5ccc(Cl)cc5)c4=O)nc3)c2cc1OC [Example 42] | 16 nM | 2.7 nM | 2 nM
5 | COc1cc2nccc(Oc3ccc(NC(=O)c4cn(C)c(C(C)C)c(-c5ccc(F)cc5)c4=O)nc3)c2cc1OC [Example 45, N-(5-((6,7-dimethoxyquinolin-4-yl)oxy)pyridin-2-yl)-5-(4-fluorophenyl)-6-isopropyl-1-methyl-4-oxo-1,4-dihydropyridine-3-carboxamide] | 91 nM | 6.2 nM | 5 nM
6 | COc1ccc2nccc(Oc3ccc(NC(=O)c4cn(CCN(C)C)cc(-c5ccc(F)cc5)c4=O)nc3)c2c1 [Example 47] | 56 nM | 18.9 nM | 1 nM
7 | COc1cc2c(Oc3ccc(NC(=O)c4cn(C(C)C)cc(-c5ccc(F)cc5)c4=O)nc3)ccnc2cc1F [Example 49, N-(5-((7-fluoro-6-methoxyquinolin-4yl)oxy)pyridin-2-yl)-5-(4-fluorophenyl)-1-isopropyl-4-oxo-1,4-dihydropyridine-3-carboxamide] | 58 nM | 67.1 nM | 1 nM
8 | CC(C)n1cc(C(=O)Nc2ccc(Oc3ccnc4cc(OC(F)(F)F)ccc34)cn2)c(=O)c(-c2ccc(F)cc2)c1 [Example 50, 5-(4-fluorophenyl)-1-isopropyl-4-oxo-N-(5-((7-(trifluoromethoxy)quinolin-4-yl)oxy)pyridin-2-yl)-1,4-dihydropyridine-3-carboxamide] | 470 nM | 166 nM | 16 nM
9 | COc1cc2nc(C)cc(Oc3ccc(NC(=O)c4cn(C(C)C)cc(-c5ccc(F)cc5)c4=O)nc3)c2cc1OC [Example 53, N-(5-((6,7-dimethoxy-2-methylquinolin-4-yl)oxy)pyridin-2-yl)-5-(4-fluorophenyl)-1-isopropyl-4-oxo-1,4-dihydropyridine-3-carboxamide] | > 1000 nM | 3710 nM | 448 nM
10 | COc1cc2nccc(Oc3cnc(NC(=O)c4cn(C(C)C)cc(-c5ccc(F)cc5)c4=O)nc3)c2cc1OC [Example 54, N-(5-((6,7-dimethoxyquinolin-4-yl)oxy)pyrimidin-2-yl)-5-(4-fluorophenyl)-1-isopropyl-4-oxo-1,4-dihydropyridine-3-carboxamide] | 21 nM | 3.2 nM | 5 nM
11 | COc1cc2nccc(Oc3cnc(NC(=O)c4cn(C(C)C)c(C)c(-c5ccc(F)cc5)c4=O)nc3)c2cc1OC [Example 55, N-(5-((6,7-dimethoxyquinolin-4-yl)oxy)pyrimidin-2-yl)-5-(4-fluorophenyl)-1-isopropyl-6-methyl-4-oxo-1,4-dihydropyridine-3-carboxamide] | 8 nM | 2.6 nM | 2 nM
12 | COc1cc2c(Oc3ccc(NC(=O)c4cn(C(C)C)cc(-c5ccc(F)cc5)c4=O)nc3)ccnc2cc1OCCCN1CCOCC1 [Example 56, 5-(4-fluorophenyl)-1-isopropyl-N-(5-((6-methoxy-7-(3-morpholinopropoxy)quinolin-4-yl)oxy)pyridin-2-yl)-4-oxo-1,4-dihydropyridine-3-carboxamide] | 10 nM | 3 nM | 3 nM

The remaining compounds from weak to strong by IC50 [1], led by results:

Row | IC50 [1] | IC50 [2] | IC50 [3] | SMILES
13 | 255 nM | 514 nM | 12 nM | COc1cc2ncc(C#N)c(Oc3ccc(NC(=O)c4cn(C(C)C)cc(-c5ccc(F)cc5)c4=O)nc3)c2cc1OC [Example 57, N-(5-((3-cyano-6,7-dimethoxyquinolin-4-yl)oxy)pyridin-2-yl)-5-(4-fluorophenyl)-1-isopropyl-4-oxo-1,4-dihydropyridine-3-carboxamide]
14 | 112 nM | 44 nM | 5 nM | CCOc1ccc2nccc(Oc3ccc(NC(=O)c4cn(C(C)C)cc(-c5ccc(F)cc5)c4=O)nc3)c2c1 [Example 51, N-(5-((6-ethoxyquinolin-4-yl)oxy)pyridin-2-yl)-5-(4-fluorophenyl)-1-isopropyl-4-oxo-1,4-dihydropyridine-3-carboxamide]
15 | 30 nM | 10.2 nM | 5 nM | COc1cc2nccc(Oc3ccc(NC(=O)c4cn(CCC(C)C)cc(-c5ccc(Cl)cc5)c4=O)nc3)c2cc1OC [Example 37]
16 | 18 nM | 14.3 nM | 4 nM | CCOc1ccc2c(Oc3ccc(NC(=O)c4cn(C(C)C)cc(-c5ccc(F)cc5)c4=O)nc3)ccnc2c1 [Example 52, N-(5-((7-ethoxyquinolin-4-yl)oxy)pyridin-2-yl)-5-(4-fluorophenyl)-1-isopropyl-4-oxo-1,4-dihydropyridine-3-carboxamide]
17 | 11 nM | 1.1 nM | 2 nM | COc1cc2nccc(Oc3ccc(NC(=O)c4cn(CCN(C)C)cc(-c5ccc(F)c(F)c5)c4=O)nc3)c2cc1OC [Example 43, 5-(3,4-difluorophenyl)-N-(5-((6,7-dimethoxyquinolin-4-yl)oxy)pyridin-2-yl)-1-]
18 | 10 nM | 8.8 nM | 2 nM | COc1cc2c(Oc3ccc(NC(=O)c4cn(C(C)C)c(C)c(-c5ccc(F)cc5)c4=O)nc3)ccnc2cc1F [Example 48, N-(5-((7-fluoro-6-methoxyquinolin-4yl)oxy)pyridin-2-yl)-5-(4-fluorophenyl)-1-isopropyl-6-methyl-4-oxo-1,4-dihydropyridine-3-carboxamide]
19 | 6 nM | 2.7 nM | 1 nM | COc1cc2nccc(Oc3ccc(NC(=O)c4cn(C(C)C)cc(-c5ccc(F)cc5)c4=O)cn3)c2cc1OC [Example 58, N-(6-((6,7-dimethoxyquinolin-4-yl)oxy)pyridin-3-yl)-5-(4-fluorophenyl)-1-isopropyl-4-oxo-1,4-dihydropyridine-3-carboxamide]
20 | 5 nM | 1.7 nM | 1 nM | COc1cc2nccc(Oc3ccc(NC(=O)c4cn(CCN(C)C)cc(-c5ccc(F)cc5)c4=O)nc3)c2cc1OC [Example 46]
21 | 4 nM | 2.1 nM | 2 nM | COc1cc2nccc(Oc3ccc(NC(=O)c4cn(CCN(C)C)cc(-c5ccc(F)cc5F)c4=O)nc3)c2cc1OC [Example 44, 5-(2,4-difluorophenyl)-N-(5-((6,7-dimethoxyquinolin-4-yl)oxy)pyridin-2-yl)-1-(2-(dimethylamino)ethyl)-4-oxo-1,4-dihydropyridine-3-carboxamide]
